Source: patent publication EP2992880A1, “Use of heme oxygenase 1 inducers and cannabinoid 2 receptor or delta-opioid receptor agonists in inflammatory pain” (Fundació Institut de Recerca de l'Hospital de la Santa Creu …, priority 2014, dated 2016)

How the values were obtained:
[1] = neuropathic pain; cited from earlier work
[2] = tested on: CFA-injected mice; assay: plantar test (thermal hyperalgesia) in CFA-induced chronic inflammatory pain; assay type: in vivo, male C57BL/6 mice
Description: The experiments were performed in male C57BL/6 mice acquired from Harlan Laboratories (Barcelona, Spain). All mice weighing 21 to 25 g were housed under 12-h/12-h light/ dark conditions in a room with controlled temperature (22° C) and humidity (66%). Animals had free access to food and water and were used after a minimum of 7 days acclimatization to the housing conditions. All experiments were performed according with the Guide for the Care and Use of Laboratory Animals as adopted and promulgated by the U.S. National Institutes of Health and approved by the local Committee of Animal Use and Care of the Autonomous University of Barcelona. All efforts were made to minimize animal suffering and to reduce the number of animals used.
Chronic inflammatory pain was induced by the subplantar injection of 30 µl of CFA (Sigma) into the right hind paw under brief anesthetic conditions with isoflurane according to previous works (Leánez et al., Eur J Pharmacol, 2009, 602:41-49; Hervera et al., Naunyn Schmiedebergs Arch Pharmacol, 2009, 380:345-352). All experiments were performed at 10 days after CFA injection. At this time point, all of these animals developed a local inflammatory reaction, allodynia to mechanical stimuli and hyperalgesia to noxious thermal stimuli, as previously reported (Negrete et al., PLoS One, 2011, 6:e26688). The development of mechanical allodynia and thermal hyperalgesia was evaluated by using the von Frey filaments and plantar tests, respectively. All animals were tested in each paradigm before and at 10 days after CFA-injection.
Thermal hyperalgesia was assessed as previously reported by Hargreaves et al. (Pain, 1988, 32:77-88). Paw withdrawal latency in response to radiant heat was measured using the plantar test apparatus (Ugo Basile, Varese, Italy). Briefly, mice were placed in methacrylate cylinders (20 cm high x 9 cm diameter) positioned on a glass surface. The heat source was positioned under the plantar surface of the hind paw and activated with a light beam intensity, chosen in preliminary studies to give baseline latencies from 8 to 10 s in control mice. A cut-off time of 12 s was used to prevent tissue damage in absence of response. The mean paw withdrawal latencies from the ipsilateral and contralateral hind paws were determined from the average of three separate trials, taken at 5 min intervals to prevent thermal sensitization and behavioral disturbances. Animals were habituated to the environment for 1 h before the experiment to become quiet and to allow testing. […]
In another set of experiments, we evaluated the mechanical antiallodynic and thermal antihyperalgesic effects produced by the subplantar administration of 290 µg of SnPP alone or combined with the subplantar administration of a high dose of DPDPE (150 µg) or JWH-015 (300 µg) in the contralateral and ipsilateral paw of CFA-injected animals (n = 6 animals per group).
The reversibility of the antinociceptive effects produced by the subplantar administration of DPDPE (150 µg) or JWH-015 (300 µg), as doses that produce the maximal antiallodynic and antihyperalgesic effects after peripheral inflammation, by their subplantar coadministration with specific (naltrindole; 50 µg; AM630; 60 µg) and an unspecific peripheral opioid antagonist (naloxone methiodide, NX-ME; 50 µg) or a cannabinoid 1 receptor (CB1R) antagonist (AM251; 150 µg) (Hervera et al., J Pharmacol Exp Ther, 2010, 334: 887-896; Hervera et al., Mol Pain, 2011, 7:25) was also evaluated (n = 6 animals per group). The doses of all tested opioid and cannabinoid receptor antagonists were selected according to our previous data in animals with chronic pain (Hervera et al., Naunyn Schmiedebergs Arch Pharmacol, 2009, 380:345-352; Hervera et al., Psychopharmacology, 2013, 228:463-477; Negrete et al., PLoS One, 2011, 6:e26688).
CoPP and SnPP were dissolved in DMSO (1 % solution in saline). JWH-015, AM630, AM251 were dissolved in DMSO (50 % solution in saline). […]

[3] = tested on: DOR; assay: Western blot of DOR protein in dorsal root ganglia of CFA-injected mice; assay type: in vivo; conditions: CoPP treatment of CFA-injected mice; P < 0.001 (Fig. 7)
Description: Animals were sacrificed at 0 days (naive) and after CFA-injection by cervical dislocation. Tissues from the ipsilateral section of the dorsal root ganglia (L3 to L5) were removed immediately after killing, frozen in liquid nitrogen, and stored at -80°C until assay. Samples from five animals were pooled into one experimental sample to obtain enough protein levels for performing Western blot analysis. The HO-1, DOR and CB2R protein levels were analyzed by Western blot. […]
The proteins were electrophoretically transferred onto PVDF membrane for 120 min, blocked with PBS + 5% nonfat dry milk, and subsequently incubated overnight at 4°C with polyclonal rabbit anti-HO-1 (1:300, Stressgen, Ann Arbor, MI), anti-DOR (1:2500, Chemicon-Millipore) or anti-CB2R (1:500, Abcam, Cambridge, United Kingdom). The proteins were detected by a horseradish peroxidase-conjugated anti-rabbit secondary antibody (GE Healthcare, Little Chalfont, Buckinghamshire, United Kingdom) and visualized with chemiluminescence reagents (ECL kit; GE Healthcare) and by exposure onto hyperfilm (GE Healthcare). The intensity of blots was quantified by densitometry. […]
Finally, in another set of experiments we evaluated the effects of CoPP on the expression of HO-1, DOR and CB2R in the ipsilateral site of the dorsal root ganglia from CFA-injected mice, by using Western blot assay. […]

[4] = visceral pain; cited from earlier work

## cobalt (III) protoporphyrin IX chloride [CoPP]
[1]
  effect of CoPP on the antinociceptive effect of DPDPE: decreased
  effect of CoPP on the antinociceptive effect of JWH-015: decreased
  effect of CoPP on the antinociceptive effect of morphine: increases
[2]; CoPP 10 mg/kg intraperitoneal, DPDPE 50 µg subplantar, P < 0.001 (Fig. 3B)
  effect of CoPP treatment on the thermal antihyperalgesic effects of DPDPE: significantly increased
[2]; CoPP 10 mg/kg intraperitoneal, JWH-015 30 µg subplantar, P < 0.001 (Fig. 4B)
  effect of CoPP treatment on the antihyperalgesic effects of JWH-015: significantly enhanced
[2]; CoPP alone 10 mg/kg intraperitoneal, ipsilateral paw, P < 0.001 versus vehicle (Fig. 3B)
  thermal hyperalgesia induced by peripheral inflammation: significantly attenuated
[2]; Table 5, ipsilateral paw, CoPP 10 mg/kg intraperitoneal, DPDPE 50 µg subplantar, vehicle 4.0
  Thermal hyperalgesia, Experimental results (%) (maximal possible effect): 26.8%
[2]; Table 6, ipsilateral paw, CoPP 10 mg/kg intraperitoneal, JWH-015 30 µg subplantar, vehicle 4.9
  Thermal hyperalgesia, Experimental results (%) (maximal possible effect): 22.3%
[3]
  decreased protein levels of DOR in the dorsal root ganglia from CFA-injected mice: avoided
[4]
  effect of CoPP on the antinociceptive effect of morphine treatment: does not alter
